Experiments:
Assay in all cases: relative viability (nuclei count vs DMSO), 5 days (fraction); higher = more cells survive
A-427 = test system: A-427
Procedure, shortened: (§1)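 Lung cancer cell lines were seeded in 1536-well plates and dosed by pin tool the next day, with either a single drug or a fixed anchor-drug dose combined with five library-drug doses (not always all listed) spaced in √10 steps. Five days later, one step fixed the cells and stained their nuclei (final 0.05% Triton X-100, 1% formaldehyde, 1 ug/ml Hoechst), and nuclei were counted on 4× images. Relative viability is the nuclei count in treated wells divided by the count in vehicle wells, and each value is the median of duplicate plates.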

SW 1573 = test system: SW 1573
Procedure, shortened: as §1

RERF-LC-KJ = test system: RERF-LC-KJ
Procedure, shortened: as §1

PC-3 [JPC-3] = test system: PC-3 [JPC-3]
Procedure, shortened: as §1

NCI-H460 = test system: NCI-H460
Procedure, shortened: as §1

NCI-H1734 = test system: NCI-H1734
Procedure, shortened: as §1

HOP-62 = test system: HOP-62
Procedure, shortened: as §1

SK-LU-1 = test system: SK-LU-1
Procedure, shortened: as §1

HCC-15 = test system: HCC-15
Procedure, shortened: as §1

NCI-H1755 = test system: NCI-H1755
Procedure, shortened: as §1

NCI-H647 = test system: NCI-H647
Procedure, shortened: as §1

LOU-NH91 = test system: LOU-NH91
Procedure, shortened: as §1

NCI-H1975 = test system: NCI-H1975
Procedure, shortened: as §1

NCI-H1915 = test system: NCI-H1915
Procedure, shortened: as §1

LC-2-ad = test system: LC-2-ad
Procedure, shortened: as §1

NCI-H2126 = test system: NCI-H2126
Procedure, shortened: as §1

HCC-78 = test system: HCC-78
Procedure, shortened: as §1

NCI-H2228 = test system: NCI-H2228
Procedure, shortened: as §1

NCI-H2347 = test system: NCI-H2347
Procedure, shortened: as §1

LXF-289 = test system: LXF-289
Procedure, shortened: as §1

NCI-H1792 = test system: NCI-H1792
Procedure, shortened: as §1

## O=C(O)c1ccc(-c2c[nH]c3ncc(-c4ccccc4)cc23)cc1C1CCCC1 + CC(C)C[C@H](NC(=O)[C@H](Cc1ccccc1)NC(=O)c1cnccn1)B(O)O [Bortezomib] (partner 0.002 µM)
A-427; first compound 0.04 µM
  relative viability: 0.947
A-427; first compound 0.1265 µM
  relative viability: 0.949
A-427; first compound 0.4 µM
  relative viability: 1.07
A-427; first compound 1.265 µM
  relative viability: 0.849
SW 1573; first compound 0.04 µM
  relative viability: 1.11
SW 1573; first compound 0.1265 µM
  relative viability: 1.09
SW 1573; first compound 0.4 µM
  relative viability: 0.99
SW 1573; first compound 1.265 µM
  relative viability: 0.722
RERF-LC-KJ; first compound 0.04 µM
  relative viability: 1.12
RERF-LC-KJ; first compound 0.1265 µM
  relative viability: 1.14
RERF-LC-KJ; first compound 0.4 µM
  relative viability: 1.06
RERF-LC-KJ; first compound 1.265 µM
  relative viability: 0.996
PC-3 [JPC-3]; first compound 0.04 µM
  relative viability: 0.832
PC-3 [JPC-3]; first compound 0.1265 µM
  relative viability: 0.921
PC-3 [JPC-3]; first compound 0.4 µM
  relative viability: 0.9
PC-3 [JPC-3]; first compound 1.265 µM
  relative viability: 0.759
NCI-H460; first compound 0.04 µM
  relative viability: 1.07
NCI-H460; first compound 0.1265 µM
  relative viability: 1.4
NCI-H460; first compound 0.4 µM
  relative viability: 0.999
NCI-H460; first compound 1.265 µM
  relative viability: 0.939
NCI-H1734; first compound 0.04 µM
  relative viability: 1.1
NCI-H1734; first compound 0.1265 µM
  relative viability: 1.02
NCI-H1734; first compound 0.4 µM
  relative viability: 0.83
NCI-H1734; first compound 1.265 µM
  relative viability: 0.785
HOP-62; first compound 0.04 µM
  relative viability: 1.01
HOP-62; first compound 0.1265 µM
  relative viability: 0.725
HOP-62; first compound 0.4 µM
  relative viability: 0.93
HOP-62; first compound 1.265 µM
  relative viability: 0.886
SK-LU-1; first compound 0.04 µM
  relative viability: 1.11
SK-LU-1; first compound 0.1265 µM
  relative viability: 1.17
SK-LU-1; first compound 0.4 µM
  relative viability: 1.15
SK-LU-1; first compound 1.265 µM
  relative viability: 0.693
HCC-15; first compound 0.04 µM
  relative viability: 0.985
HCC-15; first compound 0.1265 µM
  relative viability: 1.05
HCC-15; first compound 0.4 µM
  relative viability: 1.08
HCC-15; first compound 1.265 µM
  relative viability: 0.731
NCI-H1755; first compound 0.04 µM
  relative viability: 1.01
NCI-H1755; first compound 0.1265 µM
  relative viability: 0.732
NCI-H1755; first compound 0.4 µM
  relative viability: 0.997
NCI-H1755; first compound 1.265 µM
  relative viability: 0.924
NCI-H647; first compound 0.04 µM
  relative viability: 0.896
NCI-H647; first compound 0.1265 µM
  relative viability: 1.19
NCI-H647; first compound 0.4 µM
  relative viability: 1.3
NCI-H647; first compound 1.265 µM
  relative viability: 0.772
LOU-NH91; first compound 0.04 µM
  relative viability: 0.484
LOU-NH91; first compound 0.1265 µM
  relative viability: 0.558
LOU-NH91; first compound 0.4 µM
  relative viability: 0.449
LOU-NH91; first compound 1.265 µM
  relative viability: 0.396
NCI-H1975; first compound 0.04 µM
  relative viability: 0.344
NCI-H1975; first compound 0.1265 µM
  relative viability: 0.391
NCI-H1975; first compound 0.4 µM
  relative viability: 0.335
NCI-H1975; first compound 1.265 µM
  relative viability: 0.195
NCI-H1915; first compound 0.04 µM
  relative viability: 0.957
NCI-H1915; first compound 0.1265 µM
  relative viability: 0.949
NCI-H1915; first compound 0.4 µM
  relative viability: 0.957
NCI-H1915; first compound 1.265 µM
  relative viability: 0.789
LC-2-ad; first compound 0.04 µM
  relative viability: 1.04
LC-2-ad; first compound 0.1265 µM
  relative viability: 1.1
LC-2-ad; first compound 0.4 µM
  relative viability: 1.02
LC-2-ad; first compound 1.265 µM
  relative viability: 0.779
NCI-H2126; first compound 0.04 µM
  relative viability: 1.16
NCI-H2126; first compound 0.1265 µM
  relative viability: 1.13
NCI-H2126; first compound 0.4 µM
  relative viability: 1.1
NCI-H2126; first compound 1.265 µM
  relative viability: 1.02
HCC-78; first compound 0.04 µM
  relative viability: 0.477
HCC-78; first compound 0.1265 µM
  relative viability: 0.473
HCC-78; first compound 0.4 µM
  relative viability: 0.436
HCC-78; first compound 1.265 µM
  relative viability: 0.495
NCI-H2228; first compound 0.04 µM
  relative viability: 0.908
NCI-H2228; first compound 0.1265 µM
  relative viability: 0.954
NCI-H2228; first compound 0.4 µM
  relative viability: 1.32
NCI-H2228; first compound 1.265 µM
  relative viability: 0.414
NCI-H2347; first compound 0.04 µM
  relative viability: 1.03
NCI-H2347; first compound 0.1265 µM
  relative viability: 1.32
NCI-H2347; first compound 0.4 µM
  relative viability: 0.869
NCI-H2347; first compound 1.265 µM
  relative viability: 1.05
LXF-289; first compound 0.04 µM
  relative viability: 0.969
LXF-289; first compound 0.1265 µM
  relative viability: 0.944
LXF-289; first compound 0.4 µM
  relative viability: 0.8
LXF-289; first compound 1.265 µM
  relative viability: 0.568
NCI-H1792; first compound 0.04 µM
  relative viability: 0.933
NCI-H1792; first compound 0.1265 µM
  relative viability: 1.13
NCI-H1792; first compound 0.4 µM
  relative viability: 1.04
NCI-H1792; first compound 1.265 µM
  relative viability: 0.912

From the supplement of paper PMC10307832
